In brackets after ≈: the same amount, converted by molar mass.
Assays:
[1] = mouse, in vivo
Text: The data are presented as mean±standard deviation of three independent runs.
T1-weighted images provide only a qualitative reflection of contrast agent distribution, primarily because of the sensitivity profiles of the RF transmit and receiver coils. In contrast, R1 maps provide a better quantitative measure of the contrast agent distribution in the whole body.
The temporal behaviour of the whole-body distribution of contrast agents was quantified by constructing R1 maps at multiple time-points following injection without moving the animal (FIG. 27A). Organ-specific concentration profiles were then quantified directly from R1 measurements in manually segmented regions-of-interest according to Equation 1 (described previously), (FIG. 27B,C).
The R1 of the left ventricular (LV) blood provides a useful indicator of vascular contrast agent enhancement in whole-body images.

MDA-MB435/LCC6/WT cells = assay: MTT cell viability, wild-type cells; assay type: cell-based, human
Experimental: Cells with no treatment and incubated with blank nanoparticles were used as control for free drug and drug loaded nanoparticle respectively. Cell viability is expressed as the percent of control for each treatment group. Data points represent the mean±standard deviation of the number of trials indicated for each experiment.
The cells were treated with increasing concentrations of doxorubicin or doxorubicin-loaded nanoparticles for 24 hrs and 48 hrs, and the cell viability was determined using MTT assay.

LV blood R1 [1] | LV blood ΔR1 [1] | Compound | IC50 (MDA-MB435/LCC6/WT cells; 24 hrs treatment) | IC50 (MDA-MB435/LCC6/WT cells; 48 hrs treatment)
~0.7 s⁻¹ | ~0.1 s⁻¹ | CNC(=O)CN(CCN(CCN(CC(=O)[O-])CC(=O)NC)CC(=O)[O-])CC(=O)[O-].[Gd+3] [Omniscan®, diethylenetriamine pentaacetic acid bismethylamide gadolinium] | – | –
– | – | COc1cccc2c1C(=O)c1c(O)c3c(c(O)c1C2=O)C[C@@](O)(C(=O)CO)C[C@@H]3O[C@H]1C[C@H](N)[C@H](O)[C@H](C)O1 [free Dox, doxorubicin] | 0.34 mg/L (≈ 0.626 µM) | 0.07 mg/L (≈ 0.129 µM)

Reference: US11155664B2, “Polymeric nanoparticles useful in theranostics” (THE GOVERNING COUNCIL OF THE UNIVERSITY OF TORONTO, priority 2012, dated 2021)
